Here are results for 28 compounds from patent US20240002391A1, “4-ALKOXYPYRROLO[2,1-F][1,2,4]TRIAZINES AND PREPARATION AND USES THEREOF” (BioSplice Therapeutics, Inc., priority 2022, published 2024).

The target in this experiment is recombinant DYRK1A kinase (Homo sapiens (Human), UniProt Q13627). Put plainly: DYRK1A kinase assay (Ser/Thr 18 peptide Z-lyte FRET). It is filed as biochemical. The settings on record: DYRK1A kinase activity, Z-lyte Ser/Thr 18 peptide, 15 μM ATP; method text calls the value IC50; read-out: EC50 (the source's name). The procedure, abridged:
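Kinase 0.25 μg/mL + ATP 15 μM + Ser/Thr 18 peptide 4 μM, 1 h RT with cpd (10 μM top, 1:3, 11 pts, n=2). Dev. reagent A 1 h RT. Ex 400, Em 455/520 ratio → % phos. → IC50, nonlinear fit.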
For the compound `COc1nc(NC2CCC(=O)N(C)C2)nn2ccc(-c3ccc4nnn(CC(F)F)c4c3)c12` (stereo not shown) [Compound 793, 5-((5-(1-(2,2-Difluoroethyl)-1H-benzo[d][1,2,3]triazol-6-yl)-4-methoxypyrrolo[2,1-f][1,2,4]triazin-2-yl)amino)-1-methylpiperidin-2-one], the IC50 stood at 1.3 nM. The result for `COc1nc(N[C@H]2CCN(C3COC3)C[C@H]2F)nn2ccc(-c3ccc4nc(C)n(CC(F)F)c4c3)c12` [Compound 137, 5-(1-(2,2-Difluoroethyl)-2-methyl-1H-benzo[d]imidazol-6-yl)-N-((3R,4S)-3-fluoro-1-(oxetan-3-yl)piperidin-4-yl)-4-methoxypyrrolo[2,1-f][1,2,4]triazin-2-amine] reads 1.9 nM.

Regarding `COc1nc(N[C@@H]2CCN(C)CC2(F)F)nn2ccc(-c3ccc4ncnn4c3)c12` [Compound 576, (R)-5-([1,2,4]Triazolo[1,5-a]pyridin-6-yl)-N-(3,3-difluoro-1-methylpiperidin-4-yl)-4-methoxypyrrolo[2,1-f][1,2,4]triazin-2-amine], the IC50 was 7.3 nM. Then `COc1nc(NC2CCC3(CC2)CC3)nn2ccc(-c3cnc4nccn4c3)c12` [Compound 977, 5-(Imidazo[1,2-a]pyrimidin-6-yl)-4-methoxy-N-(spiro[2.5]octan-6-yl)pyrrolo[2,1-f][1,2,4]triazin-2-amine], with 1.8 nM; and `COc1nc(N[C@H]2C[C@@](C)(N)C2)nn2ccc(-c3ccn4nccc4c3)c12` [Compound 95, cis-N1-(4-Methoxy-5-(pyrazolo[1,5-a]pyridin-5-yl)pyrrolo[2,1-f][1,2,4]triazin-2-yl)-3-methylcyclobutane-1,3-diamine], with 8.2 nM. Then `COCCO[C@H]1CC[C@H](Nc2nc(OC)c3c(-c4ccc5nccn5c4)ccn3n2)CC1` [Compound 52, 5-(Imidazo[1,2-a]pyridin-6-yl)-4-methoxy-N-(trans-4-(2-methoxyethoxy)cyclohexyl)pyrrolo[2,1-f][1,2,4]triazin-2-amine], with 5.2 nM; and `C[C@]1(O)CC[C@H](Nc2nc(OCC(F)F)c3c(-c4ccc5ncnn5c4)ccn3n2)CC1` [Compound 616, (1r,4r)-4-((5-([1,2,4]Triazolo[1,5-a]pyridin-6-yl)-4-(2,2-difluoroethoxy)pyrrolo [2,1-f][1,2,4]triazin-2-yl)amino)-1-methylcyclohexan-1-ol], with 2.9 nM; and `COc1nc(N[C@H]2C[C@@](C)(O)C2)nn2ccc(-c3ccc4nc(C)n(CCO)c4c3)c12` [Compound 169, cis-3-((5-(1-(2-Hydroxyethyl)-2-methyl-1H-benzo[d]imidazol-6-yl)-4-methoxypyrrolo[2,1-f][1,2,4]triazin-2-yl)amino)-1-methylcyclobutan-1-ol], with 2.1 nM. For `COc1nc(N[C@@H]2CCN(C)CC2(F)F)nn2ccc(-c3ccc4nnn(C)c4c3)c12` [Compound 626, (R)—N-(3,3-Difluoro-1-methylpiperidin-4-yl)-4-methoxy-5-(1-methyl-1H-benzo[d][1,2,3]triazol-6-yl)pyrrolo[2,1-f][1,2,4]triazin-2-amine], the IC50 is 2.7 nM.

With `COc1nc(N[C@H](C)C2COC2)nn2ccc(-c3cnc4nccn4c3)c12` [Compound 927, (R)-5-(Imidazo[1,2-a]pyrimidin-6-yl)-4-methoxy-N-(1-(oxetan-3-yl)ethyl)pyrrolo[2,1-f][1,2,4]triazin-2-amine], the IC50 came out at 1.2 nM.

Regarding `COc1nc(N[C@@H]2CN(C(C)=O)C[C@@H]2F)nn2ccc(-c3ccc4nnn(CCF)c4c3)c12` [Compound 660, 1-((3S,4R)-3-Fluoro-4-((5-(1-(2-fluoroethyl)-1H-benzo[d][1,2,3]triazol-6-yl)-4-methoxypyrrolo[2,1-f][1,2,4]triazin-2-yl)amino)pyrrolidin-1-yl)ethan-1-one], the IC50 is under 0.2 nM. Then `CC[C@]1(O)CC[C@H](Nc2nc(OC)c3c(-c4ccc5nnn(CC(F)F)c5c4)ccn3n2)CC1` [Compound 727, (1r,4r)-4-((5-(1-(2,2-Difluoroethyl)-1H-benzo[d][1,2,3]triazol-6-yl)-4-methoxypyrrolo[2,1-f][1,2,4]triazin-2-yl)amino)-1-ethylcyclohexan-1-ol], with 2.8 nM. The result for `COc1nc(N[C@H]2CCN(C(C)=O)C[C@H]2F)nn2ccc(-c3cc(F)c4nc(C)n(CC(F)F)c4c3)c12` [Compound 521, 1-((3R,4S)-4-((5-(1-(2,2-Difluoroethyl)-4-fluoro-2-methyl-1H-benzo[d]imidazol-6-yl)-4-methoxypyrrolo[2,1-f][1,2,4]triazin-2-yl)amino)-3-fluoropiperidin-1-yl)ethan-1-one] reads 2.6 nM; that for `COc1nc(N[C@@H]2CCN(C3COC3)CC2(F)F)nn2ccc(-c3ccc4nccnc4c3)c12` [Compound 379, (R)—N-(3,3-Difluoro-1-(oxetan-3-yl)piperidin-4-yl)-4-methoxy-5-(quinoxalin-6-yl)pyrrolo[2,1-f][1,2,4]triazin-2-amine], 3.3 nM. For the compound `COc1nc(N[C@H]2CC[C@@H](C(F)(F)F)CC2)nn2ccc(-c3cnc4nccn4c3)c12` [Compound 239, 5-(Imidazo[1,2-a]pyrimidin-6-yl)-4-methoxy-N-(cis-4-(trifluoromethyl)cyclohexyl)pyrrolo[2,1-f][1,2,4]triazin-2-amine], the IC50 was found to be 2.9 nM. The result for `COCC(=O)N[C@]1(C)C[C@@H](Nc2nc(OC)c3c(-c4ccc5nnn(C)c5c4)ccn3n2)C1` [Compound 208, 2-Methoxy-N-(trans-3-((4-methoxy-5-(1-methyl-1H-benzo[d][1,2,3]triazol-6-yl)pyrrolo[2,1-f][1,2,4]triazin-2-yl)amino)-1-methylcyclobutyl)acetamide] reads 0.5 nM; that for `C[C@]1(O)CC[C@H](Nc2nc(OC3COC3)c3c(-c4ccc5ncccc5c4)ccn3n2)CC1` [Compound 1089, (1r,4r)-1-Methyl-4-((4-(oxetan-3-yloxy)-5-(quinolin-6-yl)pyrrolo[2,1-f][1,2,4]triazin-2-yl)amino)cyclohexan-1-ol], 4.5 nM; that for `COc1nc(N[C@H]2C[C@](C)(N)C2)nn2ccc(-c3ccc4nnn(C)c4c3)c12` [Compound 203, trans-N^1-(4-methoxy-5-(1-methyl-1H-benzo[d][1,2,3]triazol-6-yl)pyrrolo[2,1-f][1,2,4]triazin-2-yl)-3-methylcyclobutane-1,3-diamine], 7.5 nM. For `COc1nc(N[C@@H]2CCN(C3COC3)CC2(F)F)nn2ccc(-c3cnc4nccn4c3)c12` [Compound 968, (R)—N-(3,3-Difluoro-1-(oxetan-3-yl)piperidin-4-yl)-5-(imidazo[1,2-a]pyrimidin-6-yl)-4-methoxypyrrolo[2,1-f][1,2,4]triazin-2-amine], the IC50 was determined as 2.8 nM.

Take `COc1nc(N[C@@H]2CCC[C@@H]2O)nn2ccc(-c3cnc4nccn4c3)c12` [Compound 942, (1S,2R)-2-((5-(Imidazo[1,2-a]pyrimidin-6-yl)-4-methoxypyrrolo[2,1-f][1,2,4]triazin-2-yl)amino)cyclopentan-1-ol]: the IC50 was 18.9 nM.

Consider `COc1nc(N[C@H]2C[C@@H](OC)C2)nn2ccc(-c3cnc4nccn4c3)c12` [Compound 236, 5-(Imidazo[1,2-a]pyrimidin-6-yl)-4-methoxy-N-(cis-3-methoxycyclobutyl)pyrrolo[2,1-f][1,2,4]triazin-2-amine], for which the IC50 came to 0.5 nM. Then `COc1nc(NC2CC3(CCOCC3)C2)nn2ccc(-c3ccc4nccnc4c3)c12` [Compound 1100, 4-Methoxy-5-(quinoxalin-6-yl)-N-(7-oxaspiro[3.5]nonan-2-yl)pyrrolo[2,1-f][1,2,4]triazin-2-amine], with 6.7 nM; and `COc1nc(N[C@H]2CCN(CCO)C[C@H]2F)nn2ccc(-c3cc(F)c4nc(C)n(C(C)C)c4c3)c12` [Compound 542, 2-((3R,4S)-3-Fluoro-4-((5-(4-fluoro-1-isopropyl-2-methyl-1H-benzo[d]imidazol-6-yl)-4-methoxypyrrolo[2,1-f][1,2,4]triazin-2-yl)amino)piperidin-1-yl)ethan-1-ol], with 1.1 nM; and `COCCO[C@H]1CC[C@H](Nc2nc(OC)c3c(-c4ccn5nccc5c4)ccn3n2)CC1` [Compound 16, 4-Methoxy-N-(trans-4-(2-methoxyethoxy)cyclohexyl)-5-(pyrazolo[1,5-a]pyridin-5-yl)pyrrolo[2,1-f][1,2,4]triazin-2-amine], with 34.4 nM. `COc1nc(NC2CCC3(CC2)CN(C(C)=O)C3)nn2ccc(-c3ccc4nnn(CC(F)F)c4c3)c12` [Compound 799, 1-(7-((5-(1-(2,2-Difluoroethyl)-1H-benzo[d][1,2,3]triazol-6-yl)-4-methoxypyrrolo[2,1-f][1,2,4]triazin-2-yl)amino)-2-azaspiro[3.5]nonan-2-yl)ethan-1-one]: the IC50 stood at 1.7 nM. Then `COc1nc(NC2CCN(C3CC(F)(F)C3)CC2)nn2ccc(-c3ccc4ncccc4c3)c12` [Compound 306, N-(1-(3,3-Difluorocyclobutyl)piperidin-4-yl)-4-methoxy-5-(quinolin-6-yl)pyrrolo[2,1-f][1,2,4]triazin-2-amine], with 28.2 nM; and `COc1nc(N[C@H]2C[C@](C)(C(=O)NC3CC3)C2)nn2ccc(-c3ccc4ncccc4c3)c12` [Compound 1039, trans-N-Cyclopropyl-3-((4-methoxy-5-(quinolin-6-yl)pyrrolo[2,1-f][1,2,4]triazin-2-yl)amino)-1-methylcyclobutane-1-carboxamide], with 1.7 nM. The result for `COc1nc(N[C@H]2C[C@](C)(C(=O)NC3CC(F)(F)C3)C2)nn2ccc(-c3ccc4nc(C)n(CC(F)F)c4c3)c12` [Compound 504, trans-N-(3,3-Difluorocyclobutyl)-3-((5-(1-(2,2-difluoroethyl)-2-methyl-1H-benzo[d]imidazol-6-yl)-4-methoxypyrrolo[2,1-f][1,2,4]triazin-2-yl)amino)-1-methylcyclobutane-1-carboxamide] reads 1.4 nM.
